According to BindingDB's records for doi:10.1021/jm0494669 (Italy. Vinc, 2004):

Molecular target: RNA-directed RNA polymerase (Hepacivirus hominis, UniProt Q8JXU8)
Assay: Inhibitory concentration required to inhibit HCV RNA dependent RNA polymerase Nonstructural protein 5B is determined

RNA-directed RNA polymerase, sequence (Q8JXU8 whole entry): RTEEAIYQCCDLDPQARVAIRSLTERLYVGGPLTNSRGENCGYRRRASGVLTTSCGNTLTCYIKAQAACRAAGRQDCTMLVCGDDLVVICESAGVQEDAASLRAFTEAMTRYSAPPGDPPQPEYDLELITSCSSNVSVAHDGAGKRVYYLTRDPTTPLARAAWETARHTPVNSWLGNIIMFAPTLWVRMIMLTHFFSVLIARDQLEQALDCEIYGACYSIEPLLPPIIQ

Compound: O=C(O)C(=O)CC(=O)c1ccccc1
- IC50: 5.7 µM
